Reference: the Bradley open melting point set (2014)
Where “and” joins values, the source holds several entries; their conditions need not be identical. Equal entries are not always repeated.

First: NCc1ccccc1 [1-Phenylmethanamine]
Second: Nc1cccc2ccccc12 [1-aminonaphthalene]
The melting point of the first is lower: -46 °C for the first, 49 °C for the second.

Compared with `O=C1CCN(c2ccccc2)N1` [1-Phenylpyrazolidin-3-one], `O=C(O)c1cccc2ccccc12` [1-naphthoic acid] is higher in melting point: 122 °C for the first, 161 °C for the second.

First: CC(=O)NNC(N)=S [1-acetyl-3-thiosemicarbazide]
Second: Cc1ccn(C(N)=O)n1 [1-carbamoyl-3-methylpyrazole]
The melting point of the first is higher: 167 °C for the first, 148 °C for the second.

First: CC(=O)N1CCc2cc(Br)ccc21 [1-acetyl-5-bromoindoline]
Second: CCc1ccc(Br)cc1 [1-bromo-4-ethylbenzene]
The melting point of the first is higher: 120 °C for the first, -43 °C for the second.

First: OCC12CC3CC(CC(C3)C1)C2 [1-adamantanemethanol]
Second: CN1CCN(C2CCNCC2)CC1 [1-methyl-4-(4-piperidinyl)piperazine]
The melting point of the first is higher: 117 °C for the first, 55 °C for the second.

Going from `Nc1cccc2c1C(=O)c1ccccc1C2=O` [1-aminoanthraquinone] to `Cc1cccc2c1-c1nc3ccccc3nc1-2` [1-methylbenzo[3,4]cyclobuta[1,2-b]quinoxaline], the melting point falls from 254 °C to 135 °C.

First: CCCCCCCN [1-aminoheptane]
Second: CCCCCCCCCN [1-nonylamine]
The melting point of the first is lower: -18 °C for the first, -1 °C for the second.

First: NC1CCc2ccccc21 (stereo not given) [1-aminoindane]
Second: Brc1cccc2ccccc12 [1-bromonaphthalene] [listing 1 of 2 here]
The melting point of the first is higher: 2 °C for the first, -1 °C for the second.

First: CCCCCN [1-aminopentane]
Second: CCCCCCl [1-chloropentane]
The melting point of the first is higher: -55 °C for the first, -99 °C for the second.

Going from `Cc1c(C)c(C)c(Br)c(C)c1C` [1-bromo-2,3,4,5,6-pentamethylbenzene] to `Cc1cc(C)c(C)c(Br)c1C` [1-bromo-2,3,5,6-tetramethylbenzene], the melting point falls from 165 °C to 60 °C.

First: Clc1ccc(Br)c(Cl)c1 [1-bromo-2,4-dichlorobenzene]
Second: COc1ccc(Br)c(OC)c1 [1-bromo-2,4-dimethoxybenzene]
The melting point of the first is higher: 27 °C for the first, 26 °C for the second.

First: Oc1ccc2ccccc2c1Br [1-bromo-2-naphthol]
Second: Brc1cccc2ccccc12 [1-bromonaphthalene] [listing 2 of 2 here]
The melting point of the first is higher: 79 °C for the first, -1 °C for the second.

First: CC(C)(C)c1ccc(Br)cc1 [1-bromo-4-tert-butylbenzene]
Second: Cc1cccc(C(C)(C)C)c1 [1-methyl-3-tert-butylbenzene]
The melting point of the first is higher: 16 °C for the first, -41 °C for the second.

Compared with `CCCCCCCCCCBr` [1-bromodecane], `CCCCCCCCCCCCBr` [1-bromododecane] is higher in melting point: -29 °C for the first, -10 °C for the second.

Compared with `CCCCCCCCBr` [1-bromooctane], `CCCCCCCCCl` [1-chlorooctane] is lower in melting point: -55 °C for the first, -58 °C for the second.

First: COc1cc(Cl)cc(OC)c1 [1-chloro-3,5-dimethoxybenzene]
Second: COc1ccc(Cl)c(Cl)c1Cl [1-methoxy-2,3,4-trichlorobenzene]
The melting point of the first is lower: 34 °C for the first, 70 °C for the second.

Going from `Clc1ccc(I)cc1` [1-chloro-4-iodobenzene] to `Clc1cccc2ccccc12` [1-chloronaphthalene], the melting point falls from 55 °C to -8 °C.

Compared with `CCCCCCCCCCCCCl` [1-chlorododecane], `CCCCCCCCCCCCO` [1-dodecanol] is higher in melting point: -9 °C for the first, 26 °C for the second.

Compared with `C#CCCCCCCCC` [1-decyne], `C#CCCCCCCC` [1-nonyne] is lower in melting point: -44 °C for the first, -50 °C for the second.

First: C=CCCCCCCCCCCCCCCCCCC [1-eicosene]
Second: C#CCCCCCCCCCCCCCCCCC [1-nonadecyne]
The melting point of the first is lower: 29 °C for the first, 33 °C for the second.

First: CCc1ccc(-c2ccccc2)cc1 [1-ethyl-4-phenylbenzene]
Second: Cc1ccc(-c2ccccc2)cc1 [1-methyl-4-phenylbenzene]
The melting point of the first is lower: 47 °C for the first, 48 °C for the second.

Compared with `CCN1CCNC(=O)C1=O` [1-ethylpiperazine-2,3-dione], `Cn1c(=O)ccc2ccccc21` [1-methyl-2-quinolinone] is lower in melting point: 110 °C for the first, 75 °C for the second.

Going from `O=[N+]([O-])c1ccc(F)cc1` [1-fluoro-4-nitrobenzene] to `Fc1cccc2ccccc12` [1-fluoronaphthalene], the melting point falls from 23 °C to -10 °C.

Going from `CCCCCCCS` [1-heptanethiol] to `CCCCCCCCI` [1-iodooctane], the melting point falls from -43 °C to -44 °C.

Going from `C=CCCCCC` [1-heptene] to `C#CCCCC` [1-hexyne], the melting point falls from -119 °C to -132 °C.

Compared with `Cn1c(C=O)nc2ccccc21` [1-methylbenzimidazole-2-carboxaldehyde], `CC(=O)Oc1cccc2ccccc12` [1-naphthyl acetate] is lower in melting point: 120 °C for the first, 45 °C for the second.

First: OB(O)c1cccc2ccccc12 [1-naphthaleneboronic acid]
Second: N#CCc1cccc2ccccc12 [1-naphthylacetonitrile]
The melting point of the first is higher: 207 °C for the first, 34 °C for the second.

With `CC(C)CBr` [1-bromo-2-methylpropane] the melting point was -117 °C and -118 °C.
